{"source": "paper PMC11931445", "about": "“A Novel Compound QO‐83 Alleviates Acute and Chronic Epileptic Seizures in Rodents by Modulating KV7 Channel Activity” (CNS Neuroscience & Therapeutics, 2025)", "key": {"[1]": {"target": "KV7.3 (Homo sapiens, UniProt O43525)", "assay": "Manual patch clamp, KV7 currents", "type": "cell-based", "protocol": "(§1) Pipettes (1–6 MΩ) were filled with a solution of KCl (145 mM), MgCl2 (1 mM), HEPES (10 mM), and EDTA (5 mM). The pH was adjusted to 7.2 with NaOH. Electrophysiological measurements were obtained using an AXON Multiclamp 700 B patch‐clamp amplifier. The bath solution contained NaCl (144 mM), KCl (5 mM), MgCl2 (1 mM), CaCl2 (2 mM), and D‐glucose (10 mM), with the pH adjusted to 7.4 using NaOH. The protocol involved an increase in voltage from −120 mV to 40 mV in increments of 10 mV to evoke a series of KV7 currents (1000 ms per pulse) in the bath solution. For details on cell culture, please see Appendix S1 2.2.1.\n(§2) Statistical differences between multiple groups (mean ± SEM) were compared using one‐ or two‐way ANOVA. Electrophysiological data were analyzed using SPSS version 21 and OriginPro (version 9.1.0). P Peak inward currents obtained from activation protocols were calculated using the following equation: G = I/(Vm‐EK), where G is conductance, I is peak inward current, Vm is instantaneous membrane potential, and EK is equilibrium potential for the […] channel. Conductance data were normalized using maximum conductance and further fitted to the Boltzmann equation: G=Gmax+Gmin−Gmax/1+expVm−V1/2/k , where G is conductance, V1/2 is midpoint of activation, and k is slope factor. The “Spectrum” module of LabChart was used for data analysis of EEG signals, including the calculation of power density and averaging power spectral density (PSD)."}, "[2]": {"target": "T1, KV7.1/KCNE1 channel (Homo sapiens, UniProt P51787)", "T1 construct": "expressed in transfected cells; host or cells: HEK293, transient expression", "assay": "Rb+ efflux high-throughput screening (ICR 8000)", "type": "cell-based", "settings": "up to 100 μM, transient expression in HEK293 cells", "protocol": "Furthermore, the KV7.1 channel, which co-expresses with the auxiliary subunit KCNE1 to form slowly activated delayed rectifier potassium currents (IKs) during cardiac repolarization, was evaluated using the Rb^+ efflux high-throughput screening technique to determine the opening activity of QO-83 on the KCNQ1/E1 channel.\n(§3) [picture] Figure S3: The activation effect of QO-83 on the KV7 channels was preliminarily verified by high-throughput screening. (A)High-throughput screening for KV7.2/7.3 stable expressed in CHO cells (n = 6). (B)High-throughput screening for KV7.4 stable expressed in HEK293 cells (n = 6). (C) High-throughput screening for KCNQ1/E1 transient expression in HEK293 cells (n = 6).\nThe high-throughput screening experiment utilizing the ICR 8000 rubidium ion elution method aimed to assess the sensitivity of QO-83 towards KV7.2/3 and KV7.1 channels. Cells in the logarithmic growth phase were seeded into 96-well plates at a density of 2×10^5 cells per well. Following overnight incubation, the medium was replaced with 200 μL of RBCL-loaded buffer and incubated under controlled conditions (5% CO2, 37°C) for 3 hours. The loading buffer composition consisted of 5.4 mM RbCl, 5 mM Glucose, 25 mM HEPES, 150 mM NaCl, 1 mM MgCl2, 0.8 mM NaH2PO4•2H2O, and 2 mM CaCl2. […]"}, "[3]": {"target": "T2, KV7.2/7.3 (Homo sapiens, UniProt O43525+O43526)", "T2 construct": "expressed in transfected cells", "assay": "Rb+ efflux high-throughput screening (ICR 8000)", "type": "cell-based", "from_the_text": "(§4) The activation effect of QO-83 on the KV7 channel was preliminarily verified using high-throughput screening methodologies.\nas §3\n(§5) The high-throughput screening experiment utilizing the ICR 8000 rubidium ion elution method aimed to assess the sensitivity of QO-83 towards KV7.2/3 and KV7.1 channels. Cells in the logarithmic growth phase were seeded into 96-well plates at a density of 2×10^5 cells per well. Following overnight incubation, the medium was replaced with 200 μL of RBCL-loaded buffer and incubated under controlled conditions (5% CO2, 37°C) for 3 hours. The loading buffer composition consisted of 5.4 mM RbCl, 5 mM Glucose, 25 mM HEPES, 150 mM NaCl, 1 mM MgCl2, 0.8 mM NaH2PO4•2H2O, and 2 mM CaCl2.\n(§6) Subsequently, the solution was aspirated, and the cells were washed thrice with Washing Buffer (5.4 mM KCl, 25 mM HEPES, 150 mM NaCl, 1 mM MgCl2, 0.8 mM NaH2PO4•2H2O, 2 mM CaCl2). […] Each concentration was distributed across triplicate wells, with corresponding concentration solvent control wells included. […]"}, "[4]": {"target": "T3, KV7.4 (Homo sapiens, UniProt P56696)", "T3 construct": "expressed in transfected cells", "assay": "Rb+ efflux high-throughput screening (ICR 8000)", "type": "cell-based", "from_the_text": "as §4, §3, §5, §6"}, "[5]": {"test_system": "electroshock seizures", "assay": "Maximal electroshock seizure (MES) model", "type": "in vivo, Kunming mice", "settings": "15 mg/kg i.p."}, "[6]": {"test_system": "PTZ kindling seizures", "assay": "Chronic PTZ-induced epileptic kindling model", "type": "in vivo, Wistar Institute rats", "procedure": "In the preparation of the chronic PTZ‐induced epileptic kindling model, male Wistar Institute rats weighing between 180 and 250 g were utilized. […] During the modeling period, all groups received daily intraperitoneal injections of 0.2 mL/100 g between 9:00 and 15:00.\nSeizure severity was assessed using the Racine scale."}, "[7]": {"test_system": "PNC-induced seizures", "assay": "Penicillin (PNC) induced acute epilepsy model", "type": "in vivo, SD rats", "settings": "40 mg/kg i.g.", "protocol": "In the penicillin (PNC) induced acute epilepsy model study, male SD rats weighing between 180 g and 250 g were utilized. […] Each group consisted of 10 rats.\nPNC was administered intraperitoneally at a dose of 8 million U/kg to induce epileptic seizures. […] In the Compound QO‐83 treatment groups, rats were orally administered the designated doses of Compound QO‐83, followed by an intraperitoneal injection of PNC after a 20‐min interval. The PNC model group received an oral gavage of a 0.5% CMC‐Na solution, followed by an intraperitoneal injection of PNC after a 20‐min interval. […] Seizure behaviors, including convulsions, limb jerks, and loss of postural control, were observed and analyzed in all groups."}, "[8]": {"target": "T2, KV7.2/7.3", "assay": "Manual patch clamp, KV7 currents", "type": "cell-based", "protocol": "as §1, §2\nStable Chinese Hamster Ovary (CHO) cell lines expressing specific Kv7 channel subtypes, including KV7.2 and KV7.2/7.3, were cultured in Minimum Essential Medium (MEM) supplemented with 10% fetal calf serum, 1× nonessential amino acids, […], and […] hygromycin B. Concurrently, KV7.4 and KV7.5 channels were stably expressed in Human Embryonic Kidney 293A (HEK293A) cell lines and nurtured in Dulbecco's Modified Eagle Medium (DMEM) high glucose medium supplemented with 10% fetal bovine serum (FBS), […], and […] hygromycin B."}, "[9]": {"assay": "Colour stability of drug solutions", "type": "physicochemical", "settings": "10 μM in saline, 37°C, 30 days", "protocol": "Both drugs were dissolved in saline at a concentration of 10 μM and maintained at a constant temperature of 37°C for 30 days."}}, "data": [{"compound": "CCOC(=O)Nc1ccc(NCc2ccc(F)cc2)cc1N", "note": "[RTG, retigabine]", "values": [{"measurement": "activation curve V1/2", "setting": "[1]; 10.00 μM", "result": "-55.64 ± 1.31", "unit": "mV"}, {"measurement": "Activation τ (10 mV)", "setting": "[1]; 10 μM, Mean ± SE", "result": "246.33 ± 21.28", "unit": "ms"}, {"measurement": "Deactivation τ (-120 mV)", "setting": "[1]; 10 μM, Mean ± SE", "result": "153.33 ± 48.97", "unit": "ms"}, {"measurement": "opening activity on KV7.1/KCNE1 channel", "setting": "[2]", "result": "did not affect"}, {"measurement": "EC50", "setting": "[3]", "result": "180 ± 70", "unit": "nM"}, {"measurement": "EC50", "setting": "[4]", "result": "1380 ± 310", "unit": "nM"}, {"measurement": "electroshock protection rate", "setting": "[5]", "result": 90, "unit": "%"}, {"measurement": "effect on latency period", "setting": "[6]; 10 mg/kg", "result": "significantly prolong the latency period"}, {"measurement": "seizure grade", "setting": "[6]; 10 mg/kg i.p. daily, 30th day, model 4.68 ± 0.62", "result": "1.75 ± 0.31"}, {"measurement": "effect on seizure latency", "setting": "[7]", "result": "significantly increased seizure latency"}, {"measurement": "seizure grade", "setting": "[7]", "result": "2.66 ± 0.33"}, {"measurement": "activation curve V1/2", "setting": "[8]; 10.00 μM", "result": "-37.76 ± 2.34", "unit": "mV"}, {"measurement": "Activation τ (10 mV)", "setting": "[8]; 10 μM, Mean ± SE", "result": "205.66 ± 37.03", "unit": "ms"}, {"measurement": "Deactivation τ (-120 mV)", "setting": "[8]; 10 μM, Mean ± SE", "result": "154.46 ± 45.81", "unit": "ms"}, {"measurement": "color change of drug solution", "setting": "[9]", "result": "developed a distinct purple coloration"}]}]}
